Results taken from patent publication US11713322B2, “Benzimidazole derivatives as ERBB tyrosine kinase inhibitors for the treatment of cancer” (Capella Therapeutics, Inc., priority 2014, dated 2023).

Tests used:
Format in all cases: cell-based
[1] = test system: HCC827 human NSCLC adenocarcinoma cells; assay: Cell proliferation assay, HCC827 (mutant ERBB1, exon 19 deletion); details: for GI50: Homo sapiens, HCC827, 72 hrs compound treatment
Experimental: (§1) The biological activity of a test compound was determined using cell proliferation assays. The activity against wild-type ERBB1 was determined using A431 human epidermoid carcinoma cells (ATCC) and human epidermal keratinocytes, neonatal, or HEKn cells (ATCC).
(§2) A431 cells were grown in DMEM (Invitrogen) supplemented with 10% FBS (Lonza), 1% penicillin-streptomycin, and 2 mM glutamine (Invitrogen). HEKn cells were grown in EPILIFE® (Invitrogen) supplemented with HKGS (Invitrogen). […] Cells were maintained and propagated at 37° C. and 5% CO2 in a humidified cell culture incubator. Aliquots of cells from early passages were preserved for liquid nitrogen storage. Frozen vials of cells were thawed at 37° C. water bath. Cells were spun to remove freezing medium. The newly revived frozen cells were adapted in culture for 10 days before used for compound testing. Cells used in the assay were less than 20 subculture passages or 3 months in culture.
(§3) The test compounds were dissolved in dimethylsulfoxide (DMSO) and stored at −20° C. before testing. […] The cells were placed in a culture incubator overnight. Next day, test compounds in DMSO were added to the cells and placed back in the culture incubator for 72 hrs. In the meantime, the cell numbers at time zero of the compound treatment (T0) was measured by EnerCount (Codex BioSolutions). At the end of the compound treatment, the cell numbers were again measured by EnerCount as T72 values. The untreated controls (Ctrl) were cell numbers recorded from the 0.1% DMSO treatment. The percent growth inhibition by the test compound was calculated by the formula: (1−(T72−T0)/(Ctrl−T0))×100.
(§4) The results are summarized in Tables 1 and 2, wherein A represents a value no greater than 500 nM, B represents a value greater than 500 nM but no greater than 1 μM, C represents a value greater than 1 μM but no greater than 5 μM, and D represents a value greater than 5 μM; and wherein A′ represents a ratio of greater than 10, B′ represents a ratio of no greater than 10 but no less than 5, C′ represents a ratio of no greater than 5 but no less than 2, and D′ represents a ratio of no greater than 2.

[2] = test system: human epidermal keratinocytes, neonatal, or HEKn cells; assay: Cell proliferation assay, HEKn (wild-type ERBB1); details: Keratinocyte, 72 hrs compound treatment
Experimental: as §1, §2, §3, §4

[3] = test system: H1975 human NSCLC adenocarcinoma cells; assay: Cell proliferation assay, H1975 (drug-resistant mutant ERBB1, T790M/L858R); details: for GI50: Homo sapiens, NCI-H1975, 72 hrs compound treatment
Experimental: as §1, §2, §3, §4

[4] = test system: A431 human epidermoid carcinoma cells; assay: Cell proliferation assay, A431 (wild-type ERBB1); details: A-431, 72 hrs compound treatment, class symbols
Experimental: as §1, §2
as §3, with “(1−(T72−T0)/(Ctrl−T0))×100. […]” for “(1−(T72−T0)/(Ctrl−T0))×100.”

| GI50 ([1]; class symbols) [nM] | GI50 ([3]; class symbols) [nM] | GI50 [4] [nM] | GI50 ([1]; numeric values, unit inferred) [nM] | GI50 ([3]; numeric values, unit inferred) [nM] | Compound | GI50 ([2]; class symbols) [nM] | Selectivity Ratio (Wild-type ERBB1/Mutant ERBB1) HEKn/HCC827 ([1]; ratio of GI50 HEKn/HCC827) | GI50 ([2]; numeric values, unit inferred) [nM] | Selectivity Ratio (Wild-type ERBB1/Mutant ERBB1) HEKn/H1975 ([3]; ratio of GI50 HEKn/H1975) |
| --- | --- | --- | --- | --- | --- | --- | --- | --- | --- |
| < 500 | < 500 | 1000 to 5000 | – | – | C=CC(=O)N1CCCC[C@@H](n2c(NC(=O)c3ccnc(C(F)(F)F)c3)nc3ccc4c(c32)OCCO4)C1 [B1, (R)—N-(1-(1-acryloylazepan-3-yl)-7,8-dihydro-1H-[1,4]dioxino[2′,3′:3,4]benzo[1,2-d]imidazol-2-yl)-2-(trifluoromethyl)isonicotinamide] | > 5000 | – | – | – |
| < 500 | < 500 | 1000 to 5000 | – | – | C=CC(=O)N1CCCC[C@@H](n2c(NC(=O)c3ccnc(C)c3)nc3ccc4c(c32)OCCO4)C1 [C1, (R)—N-(1-(1-acryloylazepan-3-yl)-7,8-dihydro-1H-[1,4]dioxino[2′,3′:3,4]benzo[1,2-d]imidazol-2-yl)-2-methylisonicotinamide] | 1000 to 5000 | – | – | – |
| < 500 | < 500 | 1000 to 5000 | – | – | C=CC(=O)N1CCCC[C@@H](n2c(NC(=O)c3ccnc(OC)c3)nc3ccc4c(c32)OCCO4)C1 [C2, (R)—N-(1-(1-acryloylazepan-3-yl)-7,8-dihydro-1H-[1,4]dioxino[2′,3′:3,4]benzo[1,2-d]imidazol-2-yl)-2-methoxyisonicotinamide] | 1000 to 5000 | – | – | – |
| – | – | – | 32 | 109 | C=CC(=O)Nc1cccc(Nc2nc(Nc3ccc(N4CCN(C(C)=O)CC4)cc3OC)ncc2C(F)(F)F)c1 [CO-1686, reference compound] | – | A′ (A′ represents a ratio of greater than 10) | 2500 | A′ (A′ represents a ratio of greater than 10) |
